Tests used:
serum IGF-I = assay: Serum IGF-I concentration (RIA) in open-label octreotide LAR to pegvisomant conversion study; type: in vivo, human
Method: This open-label study included patients 18 years of age or older with a previously established diagnosis of acromegaly. […] Treatment with a dopamine agonist was discontinued 4 weeks before the baseline visit. Treatment with pegvisomant 10 mg/day subcutaneous was started at week 4 and continued through week 32. […] A more rapid dose escalation was allowed in a few patients based on the effective dose in the previous study. Vital signs and adverse events were monitored at each study visit; clinical and laboratory assessments were conducted at screening and baseline visits and regularly at 4-week intervals during the study. Laboratory assessments included serum IGF-I and GH concentrations, liver chemistry tests (alanine aminotransferase [ALT], aspartate transaminase [AST], bilirubin, and alkaline phosphatase), and routine laboratory tests (hematology, serum chemistry, and urinalysis). Assaying of serum IGF-I and GH concentrations was performed by an independent laboratory (Endocrine Sciences, Inc., Calabasas Hills, Calif.). Following separation of serum IGF-I from binding proteins by acid-ethanol extraction, serum IGF-I concentrations were determined using the IGF-I Nichols Kit (Cat. […] Serum GH concentrations were measured using a standard double antibody RIA with 125I-labeled recombinant human GH (hGH) tracer and primary rabbit anti-hGH antisera. Bound radioactive antibody-bound hGH was detected using a gamma counter. Specific radioactive hGH binding for each dilution was determined by subtracting the respective nonspecific binding, and the net radioactive hGH binding was calculated as a percentage of the total radioactive hGH added to each tube. Dilutions having a specific binding >2% were designated positive. For the primary outcome measure, exact binomial 2-sided 95% confidence intervals were constructed. All other analyses were descriptive in nature. For continuous measurements, descriptive summaries and subsequent analyses included the number of patients for which data were available, mean, median, standard deviation, and minimum/maximum values. […] The descriptive summaries for categorical or discrete measurements included the number and percentage of patients in each category. […] Secondary outcomes and safety were reported as descriptive summaries.

patients with acromegaly [1] = assay: Safety monitoring in conversion study: adverse events, liver function tests, blood pressure, pulse, weight; type: in vivo, human
Method: This open-label study included patients 18 years of age or older with a previously established diagnosis of acromegaly. […] Treatment with a dopamine agonist was discontinued 4 weeks before the baseline visit. Treatment with pegvisomant 10 mg/day subcutaneous was started at week 4 and continued through week 32. […] A more rapid dose escalation was allowed in a few patients based on the effective dose in the previous study. Vital signs and adverse events were monitored at each study visit; clinical and laboratory assessments were conducted at screening and baseline visits and regularly at 4-week intervals during the study. Laboratory assessments included serum IGF-I and GH concentrations, liver chemistry tests (alanine aminotransferase [ALT], aspartate transaminase [AST], bilirubin, and alkaline phosphatase), and routine laboratory tests (hematology, serum chemistry, and urinalysis). For the primary outcome measure, exact binomial 2-sided 95% confidence intervals were constructed. All other analyses were descriptive in nature. For continuous measurements, descriptive summaries and subsequent analyses included the number of patients for which data were available, mean, median, standard deviation, and minimum/maximum values. […] The descriptive summaries for categorical or discrete measurements included the number and percentage of patients in each category. […] Secondary outcomes and safety were reported as descriptive summaries.

pituitary tumor = system: pituitary tumor; parameters: species or system human; settings: in vivo
Method: Magnetic resonance imaging of the pituitary was performed at baseline and at the end of the study. Pituitary tumor volumes were calculated from the images by a single evaluator. Ultrasound of the gallbladder was performed at baseline and week 32.

patients with acromegaly [2] = assay: Glucose homeostasis in conversion study: HbA1c, fasting plasma glucose, insulin, OGTT; type: in vivo, human
Method: Glycolated hemoglobin (HbA1c), fasting plasma glucose, and insulin concentrations were used to monitor the effects of pegvisomant on glucose homeostasis. […] Patients also underwent oral glucose tolerance testing (OGTT) to determine the glucose area under the concentration-time curve (AUC) at week 4 before initiation of pegvisomant and at week 32. Plasma glucose levels were assessed at −15, 0, 30, 60, 90, 120, 150, and 180 minutes following an oral glucose load.
For the primary outcome measure, exact binomial 2-sided 95% confidence intervals were constructed. All other analyses were descriptive in nature. For continuous measurements, descriptive summaries and subsequent analyses included the number of patients for which data were available, mean, median, standard deviation, and minimum/maximum values. […] The descriptive summaries for categorical or discrete measurements included the number and percentage of patients in each category. Statistical significance defined as a P value of <0.05 was determined by: 1) McNemar's Chi-square test for liver function tests and the proportion of patients with IGF-I below upper limit of normal at during the study versus baseline, or 2) the signed rank test for all other comparisons. Secondary outcomes and safety were reported as descriptive summaries.

patients with acromegaly [3] = assay: Signs and symptoms of acromegaly, overall health status, ring size; type: in vivo, human; settings: after conversion from octreotide LAR
Method: Signs and symptoms of acromegaly and overall health status were assessed by use of questionnaire that patients completed. Disease signs and symptoms were scored using an […] (0=absent to 8=severe, incapacitating); overall health status was scored using a 10-point scale (0=worst possible to 10=best possible). Additionally, change in ring size of the fourth digit of the right hand (fifth digit if the fourth was too large) was measured using a jeweler's ring sizing system (plastic) over the course of the study.

GH or IGF-1 excess = settings: primary or secondary therapy; cited from earlier work
[4] = patients with normal IGF-I at baseline (n=13)

Compound: pegvisomant
- cumulative percentage of patients achieving at least one IGF-I concentration within normal age-related range (serum IGF-I; any time during the study): 85%
- change in IGF-I concentrations (serum IGF-I; patients with baseline IGF-I above age-adjusted reference range): significantly reduced
- change in IGF-I concentrations (serum IGF-I; patients with normal IGF-I levels at baseline): not significantly changed
- serum IGF-I concentration (serum IGF-I; week 32, all patients): 292 ng/mL
- patients with normalized IGF-I concentrations (serum IGF-I; week 32, 38 of 49 patients): 77.6%
- clinically relevant changes in serum ALT, ASP or bilirubin in patients with normal liver function at baseline (patients with acromegaly [1]; in vivo): No patient
- elevations in blood pressure or pulse (patients with acromegaly [1]; in vivo): No significant or clinically relevant elevations
- mean diastolic blood pressure (patients with acromegaly [1]; in vivo): 76 mm Hg
- mean systolic blood pressure (patients with acromegaly [1]; in vivo): 126 mm Hg
- patients reporting at least 1 adverse event (patients with acromegaly [1]; in vivo): 26.4%
- patients with abnormal liver function tests (≧3 times ULN) (patients with acromegaly [1]; in vivo): No patients had abnormal liver function tests
- patients with treatment-related constipation (patients with acromegaly [1]; in vivo): 3.8%
- patients with treatment-related injection-site reaction (patients with acromegaly [1]; in vivo): 3.8%
- serious treatment-related adverse events (patients with acromegaly [1]; in vivo): No serious treatment-related adverse events
- patients with anomalous spikes in ALT levels (patients with acromegaly [1]; week 20 to week 24): 5.7%
- pituitary volume, mean change (pituitary tumor): 0.06 cm3
- pituitary volume, median change (pituitary tumor): 0 cm3
- pituitary volume, range of change (pituitary tumor): −0.73 to 1.1 cm3
- change in median HbA1c (patients with acromegaly [2]; all patients, 32-week study): significant decrease
- decrease in fasting plasma glucose (patients with acromegaly [2]; [4]): 1.7 mmol/L
- decrease in median HbA1c (patients with acromegaly [2]; [4]): 0.2%
- peak insulin concentration (patients with acromegaly [2]; week 12): 90 pmol/L
- glucose AUC during 2-hour OGTT (patients with acromegaly [2]; week 32): 1280 mmol·min/L
- insulin/glucose ratio (patients with acromegaly [2]; week 32): 13.6
- median fasting glucose (patients with acromegaly [2]; week 32): 4.7 mmol/L
- median insulin concentration (patients with acromegaly [2]; week 32): 69 pmol/L
- mean overall signs-and-symptoms scores, overall health status, measures of ring size (patients with acromegaly [3]): improved

Compound: C[C@@H](O)[C@@H]1NC(=O)[C@H](CCCCN)NC(=O)[C@@H](Cc2c[nH]c3ccccc23)NC(=O)[C@H](Cc2ccccc2)NC(=O)[C@@H](NC(=O)[C@H](N)Cc2ccccc2)CSSC[C@@H](C(=O)N[C@H](CO)[C@@H](C)O)NC1=O [Octreotide]
- patients in whom GH or IGF-1 excess is controlled (GH or IGF-1 excess): 50-60%
